Values quoted from earlier work in publication PMC5677520 (Journal of medicinal chemistry, 2017).

Conditions: result in words

Compound	passive permeabilities
cylindrocyclin	druglike
CC[C@H](C)[C@@H]1NC(=O)c2csc(n2)[C@@H](C)NC(=O)[C@H]2N=C(O[C@@H]2C)[C@H](C(C)C)NC(=O)c2csc(n2)[C@@H](Cc2ccccc2)NC(=O)[C@H]2N=C1O[C@@H]2C [patellamide C]	druglike
